Earlier results as cited in PubChem BioAssay AID1259409 (Chemical Carcinogenesis Research Information System (CCRIS), 2018).

System: rodent chemically induced tumor inhibition, incidence and multiplicity
Test: CCRIS tumor inhibitor studies
Conditions: Carcinogen: AZOXYMETHANE, 25843-45-2, Dose [Inhibitor]: 0, Route [Inhibitor]: ORAL, Species: RAT, Strain/Sex: F344/MALE, Dose [Carcinogen]: 15 MG/KG BW 1/WK FOR 3 WK, Promoter: NONE USED

For `O=C(O)c1ccc(O)c(O)c1`, the “tumour outcome (control, treated, inhibition, significance)” value (500 PPM IN DIET FOR 4 WK BEGINNING 1 WK PRIOR TO CARCINOGEN TREATMENT (STUDY DURATION: 32 WK), Target Tissue: Type of Lesion: COLON: ADENOCARCINOMA) is given as 75%, 55%, 27%, not significant, the “tumour outcome (control, treated, inhibition, significance)” value (500 PPM IN DIET FOR 4 WK BEGINNING 1 WK PRIOR TO CARCINOGEN TREATMENT (STUDY DURATION: 32 WK), Target Tissue: Type of Lesion: COLON: ADENOMA) is given as 10%, 5%, 50%, not significant and the “tumour outcome (control, treated, inhibition, significance)” value (500 PPM IN DIET FOR 4 WK BEGINNING 1 WK PRIOR TO CARCINOGEN TREATMENT (STUDY DURATION: 32 WK), Target Tissue: Type of Lesion: LARGE INTESTINE: ADENOCARCINOMA) is given as 15/20 (75%), 11/20 (55%), 27%, not significant. The “tumour outcome (control, treated, inhibition, significance)” value (500 PPM IN DIET FOR 4 WK BEGINNING 1 WK PRIOR TO CARCINOGEN TREATMENT (STUDY DURATION: 32 WK), Target Tissue: Type of Lesion: LARGE INTESTINE: ADENOMA) was 2/20 (10%), 1/20 (5%), 50%, not significant, the “tumour outcome (control, treated, inhibition, significance)” value (500 PPM IN DIET FOR 4 WK BEGINNING 1 WK PRIOR TO CARCINOGEN TREATMENT (STUDY DURATION: 32 WK), Target Tissue: Type of Lesion: SMALL INTESTINE: ADENOCARCINOMA) was 6/20 (30%), 6/20 (30%), 0%, not significant and the “tumour outcome (control, treated, inhibition, significance)” value (500 PPM IN DIET FOR 4 WK BEGINNING 1 WK PRIOR TO CARCINOGEN TREATMENT (STUDY DURATION: 32 WK), Target Tissue: Type of Lesion: SMALL INTESTINE: ADENOMA) was 1/20 (5%), 0/20 (0%), 100%, not significant. The “tumour outcome (control, treated, inhibition, significance)” value (500 PPM IN DIET FOR 28 WK BEGINNING 1 WK POST CARCINOGEN TREATMENT (STUDY DURATION: 32 WK), Target Tissue: Type of Lesion: COLON: ADENOCARCINOMA) was 75%, 40%, 47%, not significant, the “tumour outcome (control, treated, inhibition, significance)” value (500 PPM IN DIET FOR 28 WK BEGINNING 1 WK POST CARCINOGEN TREATMENT (STUDY DURATION: 32 WK), Target Tissue: Type of Lesion: LARGE INTESTINE: ADENOCARCINOMA) was 15/20 (75%), 8/20 (40%), 47%, not significant and the “tumour outcome (control, treated, inhibition, significance)” value (500 PPM IN DIET FOR 28 WK BEGINNING 1 WK POST CARCINOGEN TREATMENT (STUDY DURATION: 32 WK), Target Tissue: Type of Lesion: LARGE INTESTINE: ADENOMA) was 2/20 (10%), 3/20 (15%), -50%, not significant. For the same compound, the “tumour outcome (control, treated, inhibition, significance)” value (500 PPM IN DIET FOR 28 WK BEGINNING 1 WK POST CARCINOGEN TREATMENT (STUDY DURATION: 32 WK), Target Tissue: Type of Lesion: SMALL INTESTINE: ADENOCARCINOMA) was 6/20 (30%), 1/20 (5%), 83%, not significant, the “tumour outcome (control, treated, inhibition, significance)” value (500 PPM IN DIET FOR 28 WK BEGINNING 1 WK POST CARCINOGEN TREATMENT (STUDY DURATION: 32 WK), Target Tissue: Type of Lesion: SMALL INTESTINE: ADENOMA) was 1/20 (5%), 0/20 (0%), 100%, not significant and the “tumour outcome (control, treated, inhibition, significance)” value (1000 PPM IN DIET FOR 4 WK BEGINNING 1 WK PRIOR TO CARCINOGEN TREATMENT (STUDY DURATION: 32 WK), Target Tissue: Type of Lesion: COLON: ADENOCARCINOMA) was 75%, 30%, 60%, p<0.05. The “tumour outcome (control, treated, inhibition, significance)” value (1000 PPM IN DIET FOR 4 WK BEGINNING 1 WK PRIOR TO CARCINOGEN TREATMENT (STUDY DURATION: 32 WK), Target Tissue: Type of Lesion: COLON: ADENOMA) was 10%, 9%, 10%, not significant, the “tumour outcome (control, treated, inhibition, significance)” value (1000 PPM IN DIET FOR 4 WK BEGINNING 1 WK PRIOR TO CARCINOGEN TREATMENT (STUDY DURATION: 32 WK), Target Tissue: Type of Lesion: LARGE INTESTINE: ADENOCARCINOMA) was 15/20 (75%), 7/23 (30%), 60%, p<0.006 and the “tumour outcome (control, treated, inhibition, significance)” value (1000 PPM IN DIET FOR 4 WK BEGINNING 1 WK PRIOR TO CARCINOGEN TREATMENT (STUDY DURATION: 32 WK), Target Tissue: Type of Lesion: LARGE INTESTINE: ADENOMA) was 2/20 (10%), 2/23 (9%), 10%, not significant. The “tumour outcome (control, treated, inhibition, significance)” value (1000 PPM IN DIET FOR 4 WK BEGINNING 1 WK PRIOR TO CARCINOGEN TREATMENT (STUDY DURATION: 32 WK), Target Tissue: Type of Lesion: SMALL INTESTINE: ADENOCARCINOMA) was 6/20 (30%), 8/23 (35%), -17%, not significant, the “tumour outcome (control, treated, inhibition, significance)” value (1000 PPM IN DIET FOR 4 WK BEGINNING 1 WK PRIOR TO CARCINOGEN TREATMENT (STUDY DURATION: 32 WK), Target Tissue: Type of Lesion: SMALL INTESTINE: ADENOMA) was 1/20 (5%), 1/23 (4%), 20%, not significant and the “tumour outcome (control, treated, inhibition, significance)” value (1000 PPM IN DIET FOR 28 WK BEGINNING 1 WK POST CARCINOGEN TREATMENT (STUDY DURATION: 32 WK), Target Tissue: Type of Lesion: COLON: ADENOCARCINOMA) was 75%, 22%, 71%, p<0.05. For the same compound, the “tumour outcome (control, treated, inhibition, significance)” value (1000 PPM IN DIET FOR 28 WK BEGINNING 1 WK POST CARCINOGEN TREATMENT (STUDY DURATION: 32 WK), Target Tissue: Type of Lesion: COLON: ADENOMA) was 10%, 9%, 10%, not significant and the “tumour outcome (control, treated, inhibition, significance)” value (1000 PPM IN DIET FOR 28 WK BEGINNING 1 WK POST CARCINOGEN TREATMENT (STUDY DURATION: 32 WK), Target Tissue: Type of Lesion: LARGE INTESTINE: ADENOCARCINOMA) was 15/20 (75%), 5/23 (22%), 71%, p<0.008.
